Molecular target: human fatty acid synthase FASN (Homo sapiens (Human), UniProt P49327)
Assay: Biochemical activity testing of human fatty acid synthase FASN (NADPH fluorescence intensity enzyme assay)
Conditions: human recombinant full-length fatty acid synthase
Summary of the method: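 In-house Sf9-expressed full-length enzyme (3 μL of 40 nM) in 50 mM potassium phosphate pH 7.0 with glutathione, BSA and Tween-20, plus NADPH (2 μL of 200 μM), preincubated ≥15 min with compound (10 concentrations from 30 μM final, 1% DMSO). Acetyl-CoA/malonyl-CoA added; NADPH fluorescence (ex 340/em 460 nm) read before and after 30 min at room temperature, difference used for IC50.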

Chain of human fatty acid synthase FASN (P49327 whole entry): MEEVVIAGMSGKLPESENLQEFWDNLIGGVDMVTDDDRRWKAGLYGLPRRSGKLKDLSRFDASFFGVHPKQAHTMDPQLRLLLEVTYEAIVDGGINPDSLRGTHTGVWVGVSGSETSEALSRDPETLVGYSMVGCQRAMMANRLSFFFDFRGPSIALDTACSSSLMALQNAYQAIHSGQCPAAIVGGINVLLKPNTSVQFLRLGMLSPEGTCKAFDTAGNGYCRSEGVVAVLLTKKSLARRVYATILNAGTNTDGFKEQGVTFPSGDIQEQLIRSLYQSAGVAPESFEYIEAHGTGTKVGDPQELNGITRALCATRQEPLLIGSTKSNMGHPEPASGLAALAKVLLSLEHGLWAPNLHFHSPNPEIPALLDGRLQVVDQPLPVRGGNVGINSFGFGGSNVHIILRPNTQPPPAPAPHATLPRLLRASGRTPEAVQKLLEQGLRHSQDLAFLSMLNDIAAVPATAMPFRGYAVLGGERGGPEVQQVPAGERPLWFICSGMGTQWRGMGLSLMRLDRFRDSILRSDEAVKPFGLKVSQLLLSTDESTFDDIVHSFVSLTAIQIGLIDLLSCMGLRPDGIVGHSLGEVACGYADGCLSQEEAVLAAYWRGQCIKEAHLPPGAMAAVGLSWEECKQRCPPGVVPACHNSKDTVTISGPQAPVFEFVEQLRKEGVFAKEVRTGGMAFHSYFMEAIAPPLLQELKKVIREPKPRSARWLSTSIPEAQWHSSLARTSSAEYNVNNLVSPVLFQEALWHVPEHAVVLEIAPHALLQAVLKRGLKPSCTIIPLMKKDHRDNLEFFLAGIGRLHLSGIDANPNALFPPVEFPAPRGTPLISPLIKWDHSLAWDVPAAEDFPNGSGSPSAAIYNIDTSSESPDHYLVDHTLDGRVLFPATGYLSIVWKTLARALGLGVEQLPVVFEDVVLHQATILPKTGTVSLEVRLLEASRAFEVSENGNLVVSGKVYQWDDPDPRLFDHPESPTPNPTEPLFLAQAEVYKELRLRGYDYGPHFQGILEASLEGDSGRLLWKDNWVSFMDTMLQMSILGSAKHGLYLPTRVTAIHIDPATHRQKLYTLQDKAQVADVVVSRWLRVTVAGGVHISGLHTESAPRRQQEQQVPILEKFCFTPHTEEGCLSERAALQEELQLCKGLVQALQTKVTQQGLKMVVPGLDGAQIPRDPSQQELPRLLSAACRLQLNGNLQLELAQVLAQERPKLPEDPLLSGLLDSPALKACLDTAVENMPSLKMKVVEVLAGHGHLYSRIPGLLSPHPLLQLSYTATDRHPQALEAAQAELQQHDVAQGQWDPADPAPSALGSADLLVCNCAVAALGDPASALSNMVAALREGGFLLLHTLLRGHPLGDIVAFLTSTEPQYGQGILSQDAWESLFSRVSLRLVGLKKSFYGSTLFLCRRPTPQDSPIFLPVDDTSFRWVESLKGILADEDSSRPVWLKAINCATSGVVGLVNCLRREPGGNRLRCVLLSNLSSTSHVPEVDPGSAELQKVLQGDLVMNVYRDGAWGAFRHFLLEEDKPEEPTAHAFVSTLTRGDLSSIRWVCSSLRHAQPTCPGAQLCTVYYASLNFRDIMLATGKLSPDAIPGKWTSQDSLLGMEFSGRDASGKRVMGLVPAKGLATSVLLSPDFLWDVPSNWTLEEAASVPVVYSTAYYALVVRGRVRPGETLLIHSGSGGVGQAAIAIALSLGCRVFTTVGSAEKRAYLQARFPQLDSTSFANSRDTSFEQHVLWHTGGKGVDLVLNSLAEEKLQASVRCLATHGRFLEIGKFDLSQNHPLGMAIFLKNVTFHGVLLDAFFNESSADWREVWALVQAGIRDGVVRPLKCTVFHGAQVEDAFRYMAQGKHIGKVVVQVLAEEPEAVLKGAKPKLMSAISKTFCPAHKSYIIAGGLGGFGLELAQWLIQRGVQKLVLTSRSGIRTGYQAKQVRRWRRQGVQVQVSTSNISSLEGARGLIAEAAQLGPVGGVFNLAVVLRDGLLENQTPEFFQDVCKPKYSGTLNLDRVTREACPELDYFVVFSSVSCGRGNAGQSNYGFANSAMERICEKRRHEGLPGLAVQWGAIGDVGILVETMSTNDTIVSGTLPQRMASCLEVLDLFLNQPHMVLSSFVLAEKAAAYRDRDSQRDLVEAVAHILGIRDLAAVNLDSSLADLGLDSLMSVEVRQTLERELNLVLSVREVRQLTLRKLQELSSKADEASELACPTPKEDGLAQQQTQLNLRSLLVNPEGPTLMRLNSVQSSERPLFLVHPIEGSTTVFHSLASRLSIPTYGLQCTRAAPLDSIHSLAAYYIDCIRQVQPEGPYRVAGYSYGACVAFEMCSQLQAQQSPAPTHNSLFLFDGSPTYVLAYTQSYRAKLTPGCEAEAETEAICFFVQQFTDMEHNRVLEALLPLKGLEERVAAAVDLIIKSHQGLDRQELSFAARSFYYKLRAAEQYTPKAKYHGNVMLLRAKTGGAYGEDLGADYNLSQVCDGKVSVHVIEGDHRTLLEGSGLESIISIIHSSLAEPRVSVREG

SMILES | IC50
CCC(=O)N[C@H]1CC[C@@H](N(C)C(=O)c2ccc(-c3ccc4[nH]cc(C)c4c3)cc2)C1 [Compound A115, N-methyl-4-(3-methyl-1H-indol-5-yl)-N-((1R,3S)-3-propionylamino-cyclopentyl)-benzamide] | < 300 nM
CCC(=O)N[C@H]1CC[C@@H](N(C)C(=O)c2ncc(-c3nc4ccc(Cl)cc4o3)cn2)C1 [Compound A156, 5-(6-chloro-benzoxazol-2-yl)-pyrimidine-2-carboxylic acid methyl-((1R,3S)-3-propionylamino-cyclopentyl)-amide] | 3000 to 50000 nM
CN(C(=O)c1ccc(-c2nc3ccc(Cl)cc3o2)cc1)[C@@H]1CC[C@H](NC(=O)[C@@H]2CCCO2)C1 [Compound A138, (S)-tetrahydro-furan-2-carboxylic acid ((1S,3R)-3-{[4-(6-chloro-benzooxazol-2-yl)-benzoyl]-methyl-amino}-cyclopentyl)-amide] | < 300 nM
CCC(=O)N[C@H]1CC[C@@H](N(C)C(=O)c2ccc(-c3ccc4[nH]ccc4c3F)cc2)C1 [Compound A116, 4-(4-fluoro-1H-indol-5-yl)-N-methyl-N-((1R,3S)-3-propionylamino-cyclopentyl)-benzamide] | < 300 nM
CCC(=O)N[C@H]1CC[C@@H](N(C)C(=O)c2cnc(-c3ccc4c(ccn4C)c3)cn2)C1 [Compound A125, 5-(1-methyl-1H-indol-5-yl)-pyrazine-2-carboxylic acid methyl-((1R,3S)-3-propionylamino-cyclopentyl)-amide] | < 300 nM
CCC(=O)N[C@H]1CC[C@@H](N(C)C(=O)c2ccc(-c3ccc(C(=O)OC)cc3F)cc2)C1 [Compound A97, 2-fluoro-4′-[methyl-((1R,3S)-3-propionylamino-cyclopentyl)-carbamoyl]-biphenyl-4-carboxylic acid methyl ester] | < 300 nM
CCC(=O)N[C@H]1CC[C@@H](N(C)C(=O)c2ccc(-c3ccccc3)cc2)C1 [Compound A8, biphenyl-4-carboxylic acid methyl-((1R,3S)-3-propionylamino-cyclopentyl)-amide] | < 300 nM
CCC(=O)N[C@H]1CC[C@@H](N(C)C(=O)c2ccc(-c3ccc4[nH]ccc4c3F)nc2)C1 [Compound A135, 6-(4-fluoro-1H-indol-5-yl)-N-methyl-N-((1R,3S)-3-propionylamino-cyclopentyl)-nicotinamide] | < 300 nM
CO[C@H](C)C(=O)N[C@H]1CC[C@@H](N(C)C(=O)c2ccc(-c3nc4ccccc4o3)cc2)C1 [Compound A32, 4-benzoxazol-2-yl-N-[(1R,3S)-3-((R)-2-methoxy-propionylamino)-cyclopentyl]-N-methyl-benzamide] | 300 to 3000 nM
CN(C)CC(=O)N[C@H]1CC[C@@H](N(C)C(=O)c2ccc(-c3nc4ccccc4o3)cc2)C1 [Compound A36, 4-benzoxazol-2-yl-N-[(1R,3S)-3-(2-dimethylamino-acetylamino)-cyclopentyl]-N-methyl-benzamide] | 300 to 3000 nM
COC(=O)[C@H](CC(=O)N[C@H]1CC[C@@H](N(C)C(=O)c2ccc(-c3nc4ccccc4o3)cc2)C1)NC(C)=O [Compound A39, (S)-2-acetylamino-N-{(1S,3R)-3-[(4-benzoxazol-2-yl-benzoyl)-methyl-amino]-cyclopentyl}-succinamic acid methyl ester] | 300 to 3000 nM
CCC(=O)N[C@H]1CC[C@@H](N(C)C(=O)c2ccc(-c3ccc4[nH]ccc4c3)cc2C)C1 [Compound A120, 4-(1H-indol-5-yl)-2,N-dimethyl-N-((1R,3S)-3-propionylamino-cyclopentyl)-benzamide] | < 300 nM
CCC(=O)N[C@H]1CC[C@@H](N(C)C(=O)c2ccc(-c3ccc4[nH]cnc4c3)cc2)C1 [Compound A76, 4-(1H-benzimidazol-5-yl)-N-methyl-N-((1R,3S)-3-propionylamino-cyclopentyl)-benzamide] | < 300 nM
CCC(=O)N[C@H]1CC[C@@H](N(C)C(=O)c2ccc(-c3nc4ccccc4s3)cc2)C1 [Compound A6, 4-benzothiazol-2-yl-N-methyl-N-((1R,3S)-3-propionylamino-cyclopentyl)-benzamide] | < 300 nM
CN(C(=O)c1ccc(-c2nc3ccccc3o2)cc1)[C@@H]1CC[C@H](NC(=O)c2ccncc2)C1 [Compound A22, N-{(1S,3R)-3-[(4-benzoxazol-2-yl-benzoyl)-methyl-amino]-cyclopentyl}-isonicotinamide] | 300 to 3000 nM
CCC(=O)N[C@H]1CC[C@@H](N(C)C(=O)c2ccc(-c3nc4cc(Cl)ccc4o3)cc2)C1 [Compound A9, 4-(5-chloro-benzoxazol-2-yl)-N-methyl-N-((1R,3S)-3-propionylamino-cyclopentyl)-benzamide] | < 300 nM
CCC(=O)N[C@H]1CC[C@@H](N(C)C(=O)c2ccc(-c3ccc4[nH]ccc4c3)cc2F)C1 [Compound A106, 2-fluoro-4-(1H-indol-5-yl)-N-methyl-N-((1R,3S)-3-propionylamino-cyclopentyl)-benzamide] | < 300 nM
CN(C(=O)c1ccc(-c2nc3ccccc3o2)cc1)[C@@H]1CC[C@@H](NC(=O)Cc2ccccc2)C1 [Compound A167, 4-benzoxazol-2-yl-N-methyl-N-((1R,3R)-3-phenylacetylamino-cyclopentyl)-benzamide] | 3000 to 50000 nM

SMILES | IC50
CCC(=O)N[C@H]1CC[C@@H](N(C)C(=O)c2ccc(-c3ccc(C#N)cc3)cc2)C1 [Compound A12, 4′-cyano-biphenyl-4-carboxylic acid methyl-((1R,3S)-3-propionylamino-cyclopentyl)-amide] | < 300 nM
CCC(=O)N[C@H]1CC[C@@H](N(C)C(=O)c2ccc(-c3ccc4c(c3)OCO4)cc2)C1 [Compound A58, 4-benzo[1,3]dioxol-5-yl-N-methyl-N-((1R,3S)-3-propionylamino-cyclopentyl)-benzamide] | < 300 nM
CN(C(=O)c1ccc(-c2nc3ccccc3o2)cc1)[C@@H]1CC[C@H](NC(=O)CC2CCCC2)C1 [Compound A44] | < 300 nM
CCC(C)CC(=O)N[C@H]1CC[C@@H](N(C)C(=O)c2ccc(-c3nc4ccccc4o3)cc2)C1 (stereo partly drawn) [Compound A26, 4-benzoxazol-2-yl-N-methyl-N-[(1R,3S)-3-(3-methyl-pentanoylamino)-cyclopentyl]-benzamide] | < 300 nM
CCC(=O)N[C@H]1CC[C@@H](N(C)C(=O)c2ccc(-c3ccc(C(=O)O)c(C)c3)cc2)C1 [Compound A52, 3-methyl-4′-[methyl-((1R,3S)-3-propionylamino-cyclopentyl)-carbamoyl]-biphenyl-4-carboxylic acid] | < 300 nM
CCC(=O)N[C@H]1CC[C@@H](N(C)C(=O)c2ccc(-c3nc4ccc(F)cc4o3)cc2)C1 [Compound A127, 4-(6-fluoro-benzoxazol-2-yl)-N-methyl-N-((1R,3S)-3-propionylamino-cyclopentyl)-benzamide] | < 300 nM
CCC(=O)N[C@H]1CC[C@@H](N(C)C(=O)c2ccc(-c3ccc4c(ccn4C)c3)c(F)c2)C1 [Compound A108, 3-fluoro-N-methyl-4-(1-methyl-1H-indol-5-yl)-N-((1R,3S)-3-propionylamino-cyclopentyl)-benzamide] | < 300 nM
CC(C)C(=O)N[C@H]1CC[C@@H](N(C)C(=O)c2ccc(-c3nc4ccccc4o3)cc2)C1 [Compound A17, 4-benzoxazol-2-yl-N-((1R,3S)-3-isobutyrylamino-cyclopentyl)-N-methyl-benzamide] | < 300 nM
CCC(=O)N[C@H]1CC[C@@H](N(C)C(=O)c2cnc(-c3cc(F)c4[nH]ccc4c3)cc2C)C1 [Compound A141, 6-(7-fluoro-1H-indol-5-yl)-4,N-dimethyl-N-((1R,3S)-3-propionylamino-cyclopentyl)-nicotinamide] | 300 to 3000 nM
CCC(=O)N[C@H]1CC[C@@H](N(C)C(=O)c2ccc(-c3ccc4c(ccn4C)c3)cc2F)C1 [Compound A111, 2-fluoro-N-methyl-4-(1-methyl-1H-indol-5-yl)-N-((1R,3S)-3-propionylamino-cyclopentyl)-benzamide] | < 300 nM
CCC(=O)N[C@H]1CC[C@@H](N(C)C(=O)c2ccc(-c3ccc(F)c(Cl)c3)cc2)C1 [Compound A63, 3′-chloro-4′-fluoro-biphenyl-4-carboxylic acid methyl-((1R,3S)-3-propionylamino-cyclopentyl)-amide] | < 300 nM
CCC(=O)N[C@H]1CC[C@@H](N(C)C(=O)c2cnc(-c3ccc4[nH]ccc4c3)c(F)c2)C1 [Compound A140, 5-fluoro-6-(1H-indol-5-yl)-N-methyl-N-((1R,3S)-3-propionylamino-cyclopentyl)-nicotinamide] | < 300 nM
CCC(=O)N[C@H]1CC[C@@H](N(C)C(=O)c2ccc(-c3ccc4[nH]ccc4c3F)nn2)C1 [Compound A137, 6-(4-fluoro-1H-indol-5-yl)-pyridazine-3-carboxylic acid methyl-((1R,3S)-3-propionylamino-cyclopentyl)-amide] | < 300 nM
CCC(=O)N[C@H]1CC[C@@H](N(C)C(=O)c2ccc(C#Cc3ccc(Cl)cc3)cc2)C1 [Compound A14, 4-(4-chloro-phenylethynyl)-N-methyl-N-((1R,3S)-3-propionylamino-cyclopentyl)-benzamide] | < 300 nM
CCC(=O)N[C@H]1CC[C@@H](N(C)C(=O)c2ccc(-c3ccc4[nH]ncc4c3C)c(C)c2)C1 [Compound A124, 3,N-dimethyl-4-(4-methyl-1H-indazol-5-yl)-N-((1R,3S)-3-propionylamino-cyclopentyl)-benzamide] | < 300 nM
CCC(=O)N[C@H]1CC[C@@H](N(C)C(=O)c2cnc(-c3ccc4[nH]ccc4c3F)cc2C)C1 [Compound A146, 6-(4-fluoro-1H-indol-5-yl)-4,N-dimethyl-N-((1R,3S)-3-propionylamino-cyclopentyl)-nicotinamide] | < 300 nM
CCC(=O)N[C@H]1CC[C@@H](N(C)C(=O)c2ccc(-c3ccc4[nH]nc(C)c4c3)cc2)C1 [Compound A100, N-methyl-4-(3-methyl-1H-indazol-5-yl)-N-((1R,3S)-3-propionylamino-cyclopentyl)-benzamide] | < 300 nM
